The source of these data is patent US8101745B2, “Lung-targeted drugs” (priority 2004, dated 2012).

Data set [1] has as its system ectromelia virus. The following applies: mouse, in vivo, po, cited from earlier work.
In data set [2] the test system is Vaccinia Copenhagen. The settings on record: cited from earlier work; for EC50: Vaccinia Copenhagen, effective dose 50%.
For data set [3], the system named is Vaccinia Copenhagen. Type of data set: cell-based.
The conditions of data set [4]: toxic dose 50%; read-out: TC50 (the source's name); cited from earlier work.
For data set [5], the system named is Cowpox Brighton. Type of data set: cell-based.
For data set [6], the system named is Cowpox Brighton. The following applies: cited from earlier work.
The conditions of data set [7]: in vivo; cited from earlier work.
Data set [8] is described as follows: Oral pharmacokinetics of 14C-labeled drug, liver and lung levels in mice. The settings on record: for AUC 14C-Drug Liver / AUC 14C-Drug Lung / Ratio Lung/Liver / Ratio Liver/Lung: 10 mg/kg single oral dose, 0 to 72 hours; for Ratio Lung/Liver / Ratio Liver/Lung: ratio of AUC.
Data set [9] has as its system ectromelia virus. Further details: species or system Female A/NCR mice. The following applies: mouse, in vivo, po.

The structures appear in SMILES notation. Several values for one entry are separate records, joined by “and”; a condition that tells them apart may be missing. Equal values may be shown once. Read-outs that look alike come from different tables or passages of the source.

For `Nc1ccn(C[C@@H](CO)OCP(=O)(O)O)c(=O)n1` [CDV, cidofovir], in data set [1] (10 mg/kg), the Lung titer was 3 × 10^6 pfu/ml, the Mortality was 100% and the Spleen titer is reported as 3 × 10^6 pfu/ml. Further, in [2], the concentration giving a half-maximal response (EC50) – broadly, the concentration at which the effect is half-maximal – is 31000 nM. This molecule also displayed an SI in [3] greater than 10. Further, in data set [4], the CC50 is greater than 317000 nM. The same molecule had an SI in data set [5] greater than 7.5. Also, in data set [6], the EC50 was 42000 nM. In [7], the oral bioavailability is less than 6%.

Take `CCCCCCCCCCCCCCCCOCCCOP(=O)(O)CO[C@H](CO)Cn1ccc(N)nc1=O` [HDP-CDV, hexadecyloxypropyl-CDV]: in data set [1] (10 mg/kg), the Liver titer is on record as <10^2 pfu/ml, the Lung titer is 5 × 10^4 pfu/ml, the Mortality is listed as 0% and the Spleen titer is on record as <10^2 pfu/ml. The EC50 in data set [2] is 600 nM. For the same molecule, the SI in data set [3] was determined as 48. Besides, in data set [8] (mice), the “AUC 14C-Drug Liver” value turned out to be 1367 nmol · gm · hrs and the “AUC 14C-Drug Lung” value was determined as 49 nmol · gm · hrs. The “Ratio Lung/Liver” value in [8] amounted to 0.04. Further, the “Ratio Liver/Lung” value in [8] (10 mg/kg) came out at 27.9. The CC50 in data set [4] is 29000 nM. The SI in data set [5] is listed as 58. For the same molecule, the EC50 in data set [6] was 500 nM.

Consider `CCCCCCCCCCCCCCCCCCOC[C@H](COP(=O)(O)CO[C@H](CO)Cn1ccc(N)nc1=O)OCc1ccccc1` [ODBG-CDV, 1-O-Octadecyl-2-O-benzyl-sn-glycero-3-cidofovir], for which, in data set [9], the “Mortality day 21” value is 2/10 and 0/10; the protection from death result is on record as “provides protection from death”. Further, the “Mean time to death” value in data set [9] (2 mg/kg/day) is given as 13.0 ± 1.4. Besides, the EC50 in data set [2] is 400 nM. Besides, the “activity against vaccinia virus in vitro” value in data set [2] (in words) is reported as “highly active”. Further, in data set [3], the SI is 118. In data set [8] (10 mg/kg oral, mice, over 72 hours, compared with HDP-CDV or ODE-CDV (FIG. 1)), the “Lung levels of 14C-labeled drug” value is reported as “much higher”. Moreover, in data set [8] (10 mg/kg oral, mice, over 72 hours, compared with HDP-CDV or ODE-CDV (FIG. 2)), the “liver levels of 14C-labeled drug” value is “lower”. In data set [8] (mice), the “AUC 14C-Drug Liver” value was determined as 318 nmol · gm · hrs and the “AUC 14C-Drug Lung” value is on record as 581 nmol · gm · hrs. In addition, the “lung area under curve relative to alkoxyalkyl derivatives of CDV” value in data set [8] (given orally, versus non lung-targeted alkoxyalkyl derivatives) is 10 fold. Besides, in data set [8], the “Ratio Liver/Lung” value stood at 0.55 and the “Ratio Lung/Liver” value worked out at 1.82. Further, in data set [4], the CC50 is 47000 nM. For the same molecule, the SI in data set [5] was determined as 157. In [6], the EC50 is 300 nM and the “activity against cowpox virus in vitro” value is on record as “highly active”.

`CCCCCCCCCCCCCCCCCCOCCOP(=O)(O)CO[C@H](CO)Cn1ccc(N)nc1=O` [ODE-CDV, octadecyloxyethyl-CDV]: in data set [1] (5 mg/kg), the Liver titer was <10^2 pfu/ml, the Lung titer is on record as 3 × 10^5 pfu/ml, the Mortality is 0% and the Spleen titer was <10^2 pfu/ml. Moreover, the EC50 in data set [2] was 600 nM. This molecule also gave an SI in data set [3] of 105. Further, in data set [8] (mice), the “AUC 14C-Drug Liver” value was determined as 1215 nmol · gm · hrs and the “AUC 14C-Drug Lung” value turned out to be 60 nmol · gm · hrs. In addition, the “Ratio Lung/Liver” value in [8] was determined as 0.05. Moreover, the “Ratio Liver/Lung” value in [8] (10 mg/kg) turned out to be 20.3. In [4], the CC50 was 21000 nM. Moreover, the SI in [5] is 105. In data set [6], the EC50 was 500 nM.
